Results from the NIST ThermoML archive (doi:10.1016/j.tca.2011.08.002).

Assays:
[1] = xn = mol fraction of the nth substance listed; settings: 101 kPa, Liquid, Vibrating tube method
[2] = refractive index (Na D-line) (dimensionless); xn = mol fraction of the nth substance listed; settings: 101 kPa, Liquid, Standard Abbe refractometry

C1CCC(NC2CCCCC2)CC1 [N-cyclohexylcyclohexanamine] + CCC(C)O
Settings	mass density, [1] [kg/m3]	refractive index, [2]
288.15 K, x2 = 0	915.498	1.48636
288.15 K, x2 = 0.0996	912.349	1.48336
288.15 K, x2 = 0.1998	908.349	1.47951
288.15 K, x2 = 0.3	903.446	1.47497
288.15 K, x2 = 0.3998	897.469	1.46961
288.15 K, x2 = 0.5011	889.89	1.4629
288.15 K, x2 = 0.599	880.802	1.45516
288.15 K, x2 = 0.6999	869.241	1.44554
288.15 K, x2 = 0.7998	854.484	1.43365
288.15 K, x2 = 0.8996	835.606	1.41884
288.15 K, x2 = 0.9494	823.99	1.41002
293.15 K, x2 = 0	911.705	1.48416
293.15 K, x2 = 0.0996	908.493	1.48112
293.15 K, x2 = 0.1998	904.427	1.47724
293.15 K, x2 = 0.3	899.455	1.47268
293.15 K, x2 = 0.3998	893.416	1.46731
293.15 K, x2 = 0.5011	885.775	1.46057
293.15 K, x2 = 0.599	876.639	1.45283
293.15 K, x2 = 0.6999	865.057	1.44322
293.15 K, x2 = 0.7998	850.31	1.43136
293.15 K, x2 = 0.8996	831.493	1.41658
293.15 K, x2 = 0.9494	819.925	1.40783
298.15 K, x2 = 0	907.923	1.48198
298.15 K, x2 = 0.0996	904.633	1.47892
298.15 K, x2 = 0.1998	900.497	1.47499
298.15 K, x2 = 0.3	895.457	1.47041
298.15 K, x2 = 0.3998	889.353	1.465
298.15 K, x2 = 0.5011	881.646	1.45825
298.15 K, x2 = 0.599	872.452	1.4505
298.15 K, x2 = 0.6999	860.838	1.44088
298.15 K, x2 = 0.7998	846.088	1.42906
298.15 K, x2 = 0.8996	827.317	1.41432
298.15 K, x2 = 0.9494	815.784	1.40558
303.15 K, x2 = 0	904.144	1.47978
303.15 K, x2 = 0.0996	900.775	1.47667
303.15 K, x2 = 0.1998	896.561	1.47273
303.15 K, x2 = 0.3	891.448	1.46813
303.15 K, x2 = 0.3998	885.272	1.4627
303.15 K, x2 = 0.5011	877.495	1.45591
303.15 K, x2 = 0.599	868.239	1.44817
303.15 K, x2 = 0.6999	856.586	1.43852
303.15 K, x2 = 0.7998	841.819	1.42671
303.15 K, x2 = 0.8996	823.072	1.412
303.15 K, x2 = 0.9494	811.566	1.40329
308.15 K, x2 = 0	900.372	1.47761
308.15 K, x2 = 0.0996	896.914	1.47445
308.15 K, x2 = 0.1998	892.619	1.47046
308.15 K, x2 = 0.3	887.426	1.4658
308.15 K, x2 = 0.3998	881.174	1.46034
308.15 K, x2 = 0.5011	873.319	1.45358
308.15 K, x2 = 0.599	863.994	1.44577
308.15 K, x2 = 0.6999	852.289	1.43617
308.15 K, x2 = 0.7998	837.495	1.42437
308.15 K, x2 = 0.8996	818.755	1.40968
308.15 K, x2 = 0.9494	807.262	1.40094
313.15 K, x2 = 0	896.608	1.47562
313.15 K, x2 = 0.0996	893.053	1.4722
313.15 K, x2 = 0.1998	888.669	1.46818
313.15 K, x2 = 0.3	883.39	1.46347
313.15 K, x2 = 0.3998	877.057	1.45797
313.15 K, x2 = 0.5011	869.116	1.45115
313.15 K, x2 = 0.599	859.715	1.44326
313.15 K, x2 = 0.6999	847.947	1.43367
313.15 K, x2 = 0.7998	833.106	1.42179
313.15 K, x2 = 0.8996	814.354	1.40723
313.15 K, x2 = 0.9494	802.87	1.39851
318.15 K, x2 = 0	892.847	1.47347
318.15 K, x2 = 0.0996	889.189	1.46999
318.15 K, x2 = 0.1998	884.706	1.46593
318.15 K, x2 = 0.3	879.336	1.46119
318.15 K, x2 = 0.3998	872.915	1.45564
318.15 K, x2 = 0.5011	864.882	1.44879
318.15 K, x2 = 0.599	855.394	1.44089
318.15 K, x2 = 0.6999	843.552	1.43125
318.15 K, x2 = 0.7998	828.652	1.41937
318.15 K, x2 = 0.8996	809.861	1.40479
318.15 K, x2 = 0.9494	798.377	1.39613
323.15 K, x2 = 0	889.089	1.47134
323.15 K, x2 = 0.0996	885.321	1.46783
323.15 K, x2 = 0.1998	880.732	1.46374
323.15 K, x2 = 0.3	875.264	1.45889
323.15 K, x2 = 0.3998	868.746	1.45336
323.15 K, x2 = 0.5011	860.611	1.44656
323.15 K, x2 = 0.599	851.029	1.43856
323.15 K, x2 = 0.6999	839.101	1.42888
323.15 K, x2 = 0.7998	824.126	1.41694
323.15 K, x2 = 0.8996	805.292	1.40233
323.15 K, x2 = 0.9494	793.784	1.39357
